Like-named read-outs stand apart in the source and are kept apart here.
Test system: GRMD plasma proteins
Format: in vivo, dog
[1] = EDG-5506 treatment to GRMD baseline, Increased in GRMD

O=c1ccc(-c2cnc(OCC(F)(F)F)nc2)nn1Cc1cncc(F)c1 [EDG-5506]
Change from GRMD Baseline (fraction): Tyrosine-protein kinase Yes (YES1) [1]: -0.1382 fraction
Change from GRMD Baseline (fraction): Tyrosine-protein kinase ZAP-70 (ZAP70) [1]: -0.1508 fraction
Change from GRMD Baseline (fraction): Tyrosine-protein phosphatase non-receptor type 1 (PTPN1) [1]: -0.1492 fraction
Change from GRMD Baseline (fraction): Tyrosine-protein phosphatase non-receptor type 11 (PTPN11) [1]: -0.1298 fraction
Change from GRMD Baseline (fraction): UMP-CMP kinase (CMPK1) [1]: -0.0444 fraction
Change from GRMD Baseline (fraction): Ubiquitin carboxyl-terminal hydrolase 25 (USP25) [1]: -0.1723 fraction
Change from GRMD Baseline (fraction): Ubiquitin carboxyl-terminal hydrolase isozyme L1 (UCHL1) [1]: -0.1135 fraction
Change from GRMD Baseline (fraction): Ubiquitin-fold modifier 1 (UFM1) [1]: -0.238 fraction
Change from GRMD Baseline (fraction): Vascular cell adhesion protein 1 (VCAM1) [1]: -0.0642 fraction
Change from GRMD Baseline (fraction): Vitamin K-dependent protein C (PROC) [1]: -0.2124 fraction
Change from GRMD Baseline (fraction): Vitronectin (VTN) [1]: -0.1269 fraction
Change from GRMD Baseline (fraction): cAMP-dependent protein kinase catalytic subunit alpha (PRKACA) [1]: -0.4297 fraction
Change from GRMD Baseline (fraction): dCTP pyrophosphatase 1 (DCTPP1) [1]: -0.2045 fraction
Chitotriosidase-1 (CHIT1): Change from GRMD Baseline (fraction) [1]: -0.0569 fraction
Chorionic somatomammotropin hormone (CSH1 CSH2): Change from GRMD Baseline (fraction) [1]: -0.0697 fraction
Chromobox protein homolog 5 (CBX5): Change from GRMD Baseline (fraction) [1]: -0.0792 fraction
Coagulation Factor X (F10): Change from GRMD Baseline (fraction) [1]: 0.1015 fraction
Coagulation factor IX (F9): Change from GRMD Baseline (fraction) [1]: 0.0746 fraction
Complement component 1 Q subcomponent-binding protein, mitochondrial (C1QBP): Change from GRMD Baseline (fraction) [1]: -0.0848 fraction
Connective tissue growth factor (CTGF): Change from GRMD Baseline (fraction) [1]: -0.0649 fraction
Cyclin-dependent kinase 1:G2/mitotic-specific cyclin-B1 complex (CDC2 CCNB1): Change from GRMD Baseline (fraction) [1]: -0.037 fraction
Cyclin-dependent kinase 5:Cyclin-dependent kinase 5 activator 1 complex (CDK5 CDK5R1): Change from GRMD Baseline (fraction) [1]: -0.0717 fraction
Cytokine receptor-like factor 1:Cardiotrophin-like cytokine factor 1 Complex (CRLF1 CLCF1): Change from GRMD Baseline (fraction) [1]: 0.1068 fraction
Dual 3',5'-cyclic-AMP and -GMP phosphodiesterase 11A (PDE11A): Change from GRMD Baseline (fraction) [1]: 0.0578 fraction
Ectodysplasin-A, secreted form (EDA): Change from GRMD Baseline (fraction) [1]: -0.0132 fraction
Endothelial cell-selective adhesion molecule (ESAM): Change from GRMD Baseline (fraction) [1]: 0.0149 fraction
Endothelial monocyte-activating polypeptide 2 (AIMP1): Change from GRMD Baseline (fraction) [1]: -0.1718 fraction
Extracellular superoxide dismutase [Cu-Zn] (SOD3): Change from GRMD Baseline (fraction) [1]: -0.0256 fraction
Ficolin-2 (FCN2): Change from GRMD Baseline (fraction) [1]: -0.1165 fraction
Fms-related tyrosine kinase 3 ligand (FLT3LG): Change from GRMD Baseline (fraction) [1]: -0.0844 fraction
Galactoside 3(4)-L-fucosyltransferase (FUT3): Change from GRMD Baseline (fraction) [1]: 0.0031 fraction
Galectin-10 (CLC): Change from GRMD Baseline (fraction) [1]: 0.0351 fraction
Glial fibrillary acidic protein (GFAP): Change from GRMD Baseline (fraction) [1]: -0.0103 fraction
Glycylpeptide N-tetradecanoyltransferase 1 (NMT1): Change from GRMD Baseline (fraction) [1]: -0.1333 fraction
Group 10 secretory phospholipase A2 (PLA2G10): Change from GRMD Baseline (fraction) [1]: 0.0049 fraction
Growth hormone receptor (GHR): Change from GRMD Baseline (fraction) [1]: -0.0293 fraction
Growth-regulated alpha protein (CXCL1): Change from GRMD Baseline (fraction) [1]: -0.0678 fraction
Growth/differentiation factor 15 (GDF15): Change from GRMD Baseline (fraction) [1]: -0.0948 fraction
Hepatocyte growth factor (HGF): Change from GRMD Baseline (fraction) [1]: -0.0495 fraction
Hepcidin (HAMP): Change from GRMD Baseline (fraction) [1]: -0.0269 fraction
Immunoglobulin M (IGHM IGJ IGK@ IGL@): Change from GRMD Baseline (fraction) [1]: -0.1429 fraction
Importin subunit alpha-1 (KPNA2): Change from GRMD Baseline (fraction) [1]: -0.0896 fraction
Induced myeloid leukemia cell differentiation protein Mcl-1 (MCL1): Change from GRMD Baseline (fraction) [1]: -0.0522 fraction
Inorganic pyrophosphatase (PPA1): Change from GRMD Baseline (fraction) [1]: -0.2863 fraction
Insulin-like growth factor-binding protein 7 (IGFBP7): Change from GRMD Baseline (fraction) [1]: -0.0264 fraction
Integrin alpha-IIb: beta-3 complex (ITGA2B ITGB3): Change from GRMD Baseline (fraction) [1]: -0.0613 fraction
Interleukin-4 (IL4): Change from GRMD Baseline (fraction) [1]: -0.0475 fraction
Interleukin-6 receptor subunit beta (IL6ST): Change from GRMD Baseline (fraction) [1]: 0.0395 fraction
Interleukin-8 (CXCL8): Change from GRMD Baseline (fraction) [1]: -0.0542 fraction
Interleukin-10 receptor subunit beta (IL10RB): Change from GRMD Baseline (fraction) [1]: -0.0725 fraction
Interleukin-17 receptor C (IL17RC): Change from GRMD Baseline (fraction) [1]: -0.0346 fraction
Interleukin-18 receptor accessory protein (IL18RAP): Change from GRMD Baseline (fraction) [1]: -0.0372 fraction
Interleukin-27 (IL27 EBI3): Change from GRMD Baseline (fraction) [1]: -0.0259 fraction
Interleukin-36 beta (IL36B): Change from GRMD Baseline (fraction) [1]: -0.0479 fraction
Killer cell immunoglobulin-like receptor 3DS1 (KIR3DS1): Change from GRMD Baseline (fraction) [1]: 0.0065 fraction
Killer cell lectin-like receptor subfamily F member 1 (KLRF1): Change from GRMD Baseline (fraction) [1]: -0.0162 fraction
Lamin-B1 (LMNB1): Change from GRMD Baseline (fraction) [1]: 0.0054 fraction
Laminin (LAMA1 LAMB1 LAMC1): Change from GRMD Baseline (fraction) [1]: -0.1316 fraction
Low-density lipoprotein receptor-related protein 1B (LRP1B): Change from GRMD Baseline (fraction) [1]: -0.0892 fraction
Macrophage-stimulating protein receptor (MST1R): Change from GRMD Baseline (fraction) [1]: -0.0588 fraction
Matrilin-3 (MATN3): Change from GRMD Baseline (fraction) [1]: -0.1231 fraction
Matrilysin (MMP7): Change from GRMD Baseline (fraction) [1]: -0.0308 fraction
N-terminal pro-BNP (NPPB): Change from GRMD Baseline (fraction) [1]: -0.0602 fraction
NKG2D ligand 3 (ULBP3): Change from GRMD Baseline (fraction) [1]: -0.0822 fraction
Neural cell adhesion molecule L1-like protein (CHL1): Change from GRMD Baseline (fraction) [1]: -0.0329 fraction
Neurexophilin-1 (NXPH1): Change from GRMD Baseline (fraction) [1]: -0.0271 fraction
OX-2 membrane glycoprotein (CD200): Change from GRMD Baseline (fraction) [1]: -0.0611 fraction
Persephin (PSPN): Change from GRMD Baseline (fraction) [1]: -0.013 fraction
Phosphatidylinositol 4,5-bisphosphate 3-kinase catalytic subunit gamma isoform (PIK3CG): Change from GRMD Baseline (fraction) [1]: -0.1006 fraction
Pituitary adenylate cyclase-activating polypeptide 27 (ADCYAP1): Change from GRMD Baseline (fraction) [1]: 0.1436 fraction
Platelet factor 4 (PF4): Change from GRMD Baseline (fraction) [1]: -0.1659 fraction
Platelet glycoprotein VI (GP6): Change from GRMD Baseline (fraction) [1]: 0.0008 fraction
Prolactin (PRL): Change from GRMD Baseline (fraction) [1]: -0.0751 fraction
Prolactin receptor (PRLR): Change from GRMD Baseline (fraction) [1]: -0.064 fraction
Proteasome subunit alpha type-6 (PSMA6): Change from GRMD Baseline (fraction) [1]: -0.0773 fraction
Protein E7_HPV18 (Human-virus): Change from GRMD Baseline (fraction) [1]: -0.1102 fraction
Proto-oncogene tyrosine-protein kinase receptor Ret (RET): Change from GRMD Baseline (fraction) [1]: -0.0388 fraction
RNA-binding protein 39 (RBM39): Change from GRMD Baseline (fraction) [1]: -0.0705 fraction
Ras GTPase-activating protein 1 (RASA1): Change from GRMD Baseline (fraction) [1]: -0.1536 fraction
Ribosome maturation protein SBDS (SBDS): Change from GRMD Baseline (fraction) [1]: -0.2649 fraction
SPARC-related modular calcium-binding protein 1 (SMOC1): Change from GRMD Baseline (fraction) [1]: -0.0553 fraction
Secreted and transmembrane protein 1 (SECTM1): Change from GRMD Baseline (fraction) [1]: -0.0267 fraction
Serine/threonine-protein kinase PAK 3 (PAK3): Change from GRMD Baseline (fraction) [1]: -0.1036 fraction
Serine/threonine-protein kinase PAK 7 (PAK7): Change from GRMD Baseline (fraction) [1]: -0.037 fraction
Serine/threonine-protein kinase pim-1 (PIM1): Change from GRMD Baseline (fraction) [1]: -0.0646 fraction
Serum amyloid A-1 protein (SAA1): Change from GRMD Baseline (fraction) [1]: -0.1842 fraction
Sialic acid-binding Ig-like lectin 7 (SIGLEC7): Change from GRMD Baseline (fraction) [1]: -0.0326 fraction
Small ubiquitin-related modifier 3 (SUMO3): Change from GRMD Baseline (fraction) [1]: -0.2515 fraction
Stromelysin-1 (MMP3): Change from GRMD Baseline (fraction) [1]: 0.0153 fraction
Stromelysin-2 (MMP10): Change from GRMD Baseline (fraction) [1]: -0.0419 fraction
Synaptosomal-associated protein 25 (SNAP25): Change from GRMD Baseline (fraction) [1]: 0.0795 fraction
T-cell surface glycoprotein CD4 (CD4): Change from GRMD Baseline (fraction) [1]: -0.0326 fraction
T-lymphocyte activation antigen CD86 (CD86): Change from GRMD Baseline (fraction) [1]: -0.0169 fraction
TATA-box-binding protein (TBP): Change from GRMD Baseline (fraction) [1]: -0.0838 fraction
Thyroxine-binding globulin (SERPINA7): Change from GRMD Baseline (fraction) [1]: 0.0123 fraction
Transcription factor IIIB 90 kDa subunit (BRF1): Change from GRMD Baseline (fraction) [1]: -0.0779 fraction
Tumor necrosis factor ligand superfamily member 18 (TNFSF18): Change from GRMD Baseline (fraction) [1]: -0.0886 fraction
Tumor necrosis factor receptor superfamily member 13B (TNFRSF13B): Change from GRMD Baseline (fraction) [1]: -0.1006 fraction
Tumor necrosis factor receptor superfamily member 13C (TNFRSF13C): Change from GRMD Baseline (fraction) [1]: 0.0816 fraction
Tumor-associated calcium signal transducer 2 (TACSTD2): Change from GRMD Baseline (fraction) [1]: -0.0508 fraction
Ubiquitin-conjugating enzyme E2 G2 (UBE2G2): Change from GRMD Baseline (fraction) [1]: 0.0044 fraction
WNT1-inducible-signaling pathway protein 1 (WISP1): Change from GRMD Baseline (fraction) [1]: -0.2187 fraction
WNT1-inducible-signaling pathway protein 3 (WISP3): Change from GRMD Baseline (fraction) [1]: -0.0425 fraction
alpha-2-macroglobulin receptor-associated protein (LRPAP1): Change from GRMD Baseline (fraction) [1]: -0.1071 fraction
cGMP-dependent 3',5'-cyclic phosphodiesterase (PDE2A): Change from GRMD Baseline (fraction) [1]: -0.1496 fraction
Change from GRMD Baseline (fraction) (Endothelial cell-specific molecule 1 (ESM1), EDG-5506 treatment to GRMD baseline): -0.0233 fraction
Change from GRMD Baseline (fraction) (Endothelial cell-specific molecule 1 (ESM1), Post-Treatment to GRMD baseline): -0.0289 fraction
Change from GRMD Baseline (fraction) (Ephrin-B3 (EFNB3), EDG-5506 treatment to GRMD baseline): 0.1026 fraction
Change from GRMD Baseline (fraction) (Ephrin-B3 (EFNB3), Post-Treatment to GRMD baseline): -0.0272 fraction
Change from GRMD Baseline (fraction) (Eukaryotic translation initiation factor 4E-binding protein 2 (EIF4EBP2), EDG-5506 treatment to GRMD baseline): 0.16 fraction
Change from GRMD Baseline (fraction) (Eukaryotic translation initiation factor 4E-binding protein 2 (EIF4EBP2), Post-Treatment to GRMD baseline): 0.0377 fraction
common DMD plasma proteomic signature (GRMD plasma, Somascan): significantly reversed this common DMD signature
Change from GRMD Baseline (fraction) (Glutathione S-transferase A3 (GSTA3), EDG-5506 treatment to GRMD baseline): 0.0601 fraction
Change from GRMD Baseline (fraction) (Glutathione S-transferase A3 (GSTA3), Post-Treatment to GRMD baseline): 1.476 fraction
Change from GRMD Baseline (fraction) (Heparan-sulfate 6-O-sulfotransferase 1 (HS6ST1), EDG-5506 treatment to GRMD baseline): 0.0701 fraction
Change from GRMD Baseline (fraction) (Heparan-sulfate 6-O-sulfotransferase 1 (HS6ST1), Post-Treatment to GRMD baseline): -0.1313 fraction
Change from GRMD Baseline (fraction) (Histone H3.1 (HIST1H3A), EDG-5506 treatment to GRMD baseline): 0.1658 fraction
Change from GRMD Baseline (fraction) (Histone H3.1 (HIST1H3A), Post-Treatment to GRMD baseline): 0.0723 fraction
Change from GRMD Baseline (fraction) (Human Chorionic Gonadotropin (CGA CGB), EDG-5506 treatment to GRMD baseline): 0.1653 fraction

— publication PMC10178848, “Modulating fast skeletal muscle contraction protects skeletal muscle in animal models of Duchenne muscular dystrophy” (The Journal of Clinical Investigation, 2023)
